Source: ChEMBL document CHEMBL2074508, “Functional characterization of the human multidrug transporter, ABCG2, expressed in insect cells” (Biochem Biophys Res Commun, 2001)

These compounds were tested against T1, Broad substrate specificity ATP-binding cassette transporter ABCG2 (Homo sapiens, UniProt Q9UNQ0) (assay: TP_TRANSPORTER: ATP hydrolysis in membrane vesicle from BCRP-expressing Sf9 cells). Conditions: read-out: Kact.
T1 sequence (Q9UNQ0 whole entry): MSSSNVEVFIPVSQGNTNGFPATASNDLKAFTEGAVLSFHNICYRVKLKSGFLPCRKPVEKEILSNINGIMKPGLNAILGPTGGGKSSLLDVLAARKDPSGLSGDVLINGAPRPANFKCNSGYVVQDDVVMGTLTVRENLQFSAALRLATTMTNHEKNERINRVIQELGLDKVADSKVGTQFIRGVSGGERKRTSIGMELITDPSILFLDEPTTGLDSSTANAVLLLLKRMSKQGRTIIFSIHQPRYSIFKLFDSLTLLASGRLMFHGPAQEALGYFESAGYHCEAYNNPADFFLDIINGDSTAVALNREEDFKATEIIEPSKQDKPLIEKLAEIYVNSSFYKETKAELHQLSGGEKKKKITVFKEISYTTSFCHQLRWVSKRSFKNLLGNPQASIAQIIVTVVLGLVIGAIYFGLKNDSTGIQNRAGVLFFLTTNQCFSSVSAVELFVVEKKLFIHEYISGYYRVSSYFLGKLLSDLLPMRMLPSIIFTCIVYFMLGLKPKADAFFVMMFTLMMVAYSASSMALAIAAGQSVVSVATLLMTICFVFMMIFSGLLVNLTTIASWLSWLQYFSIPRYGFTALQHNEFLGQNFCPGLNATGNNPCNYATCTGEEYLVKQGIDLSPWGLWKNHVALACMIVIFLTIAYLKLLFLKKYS
Format: functional, cell membranes

SMILES | EC50
COc1cccc2c1C(=O)c1c(O)c3c(c(O)c1C2=O)C[C@@](O)(C(C)=O)C[C@@H]3O[C@H]1C[C@H](N)[C@H](O)[C@H](C)O1 [DAUNORUBICIN] | 2.5 µM
O=C1c2c(O)ccc(O)c2C(=O)c2c(NCCNCCO)ccc(NCCNCCO)c21 [MITOXANTRONE] | 7 µM

Second part, the compound after the results:

EC50 | SMILES
4.5 µM | COC(=O)c1ccccc1-c1c2ccc(=N)cc-2oc2cc(N)ccc12 [RHODAMINE123]
1 µM | COc1cc2nc(N3CCN(C(=O)c4ccco4)CC3)nc(N)c2cc1OC [PRAZOSIN]
5 µM | COc1cccc2c1C(=O)c1c(O)c3c(c(O)c1C2=O)C[C@@](O)(C(=O)CO)C[C@@H]3O[C@H]1C[C@H](N)[C@H](O)[C@H](C)O1 [DOXORUBICIN]

These compounds were tested against T1, Broad substrate specificity ATP-binding cassette transporter ABCG2 (assay: TP_TRANSPORTER: inhibition of ATPase in membrane vesicle from BCRP-expressing Sf9 cells). Conditions: not given.
Format: functional, cell membranes

SMILES | Ki
COc1ccc2c3c([nH]c2c1)[C@H](C=C(C)C)N1C(=O)[C@@H]2CCCN2C(=O)[C@@H]1C3 [FUMITREMORGIN] | 1.3 µM
